Values joined by “and” are separate entries in the source; they are usually repeats but may differ in a detail not shown here. Identical values can stand only once. Like-named read-outs stand apart in the source and are kept apart here.
Experiments:
BasC Y236F mutant = assay: [3H]L-alanine transport in BasC Y236F proteoliposomes; format: biochemical, Carnobacterium sp AT7
Protocol: BasC was overexpressed as a C-terminal fusion with GFP in E. coli BL21 Star (DE3) cells grown in LB media. Single point mutations (Supplementary Table 2) were introduced using the QuikChange site-directed mutagenesis kit (Stratagene, San Diego, CA). All mutations were verified by sequencing. Expression was induced with 0.1 mM isopropyl-ß-D-thiogalactopyranoside at 37 °C for 22 h. Cells were harvested at 5000 × g for 15 min at 4 °C and stored at −80 °C until use. Cell pellets were thawed and resuspended in 20 mM Tris-Base, 150 mM NaCl, pH 7.4. Cells were pelleted again at 5000 × g for 15 min at 4 °C, resuspended in lysis buffer (20 mM Tris-Base, 350 mM NaCl, pH 7.4, 1 mM pefabloc and complete mini protease inhibitor cocktail) (Roche, Basel Switzerland) and then broken using a Cell Disruptor (four cycles at 20,000 psi; Constant Systems Ltd., Daventry, UK). Cell debris was removed by centrifugation (15,000 × g for 1 h at 4 °C), and the supernatant was subjected to ultracentrifugation (200,000 × g for 2 h at 4 °C). The membrane pellet was resuspended in 20 mM Tris-Base, 150 mM NaCl, pH 7.4 and 10% glycerol at a protein concentration of 8–12 mg ml^−1, and then frozen in liquid nitrogen and stored at −80 °C until use.
BasC-GFP protein was reconstituted in E. coli polar lipids (Sigma-Aldrich, Madrid, Spain), as previously described. Lipids were dried under N2 and suspended in reconstitution buffer (20 mM Tris-Base, 150 mM NaCl, pH 7.4). The suspension was sonicated to clarity and purified BasC protein was added to reach the desired protein to lipid ratio of 1:100 (w:w). To destabilize the liposomes, 1.25% ß-D-octylglucoside was added and the mixture was incubated on ice with occasional agitation for 5 min. DDM and ß-D-octylglucoside were removed by dialysis for 40 h at 4 °C against 100 volumes of dialysis buffer. Proteoliposome (PL) suspensions were frozen in liquid N2 and stored at −80 °C until use.
For uptake experiments, the desired intraliposomal amino acid concentration was added to the PL suspension, which was then subjected to three freeze/thaw cycles. The extraliposomal amino acid content was then removed by ultracentrifugation (100,000 × g for 1 h at 4 °C) and PLs were resuspended to one-third of the initial volume with reconstitution buffer. Amino acid uptake assays were initiated after mixing 10 μl of cold PLs with 180 μl of transport buffer (20 mM Tris-Base, 150 mM NaCl, pH 7.4 plus 0.5–1 µCi/180 µl of radiolabeled L-amino acid (Perkin Elmer, Waltham, MA)) supplemented with the unlabeled amino acid to the desired concentration. This mixture was then incubated at room temperature for the indicated periods. […] Filters were then washed twice with 2 ml of stop buffer and dried, and the trapped radioactivity was counted. Transport measured in PLs containing no amino acid was subtracted from each data point to calculate the net exchange. […] BasC protein in PLs was determined by Coomassie blue staining in SDS-PAGE gels compared with known amounts of BasC in DDM micelles, determined by BCA assay (Pierce, Rockford, IL) and loaded in the same gel.

BasC S282A mutant = assay: [3H]L-alanine transport in BasC S282A proteoliposomes; format: biochemical, Carnobacterium sp AT7; conditions: BasC S282A in PLs, WT = 100, n=1-3 and mean
Protocol: BasC was overexpressed as a C-terminal fusion with GFP in E. coli BL21 Star (DE3) cells grown in LB media. Single point mutations (Supplementary Table 2) were introduced using the QuikChange site-directed mutagenesis kit (Stratagene, San Diego, CA). All mutations were verified by sequencing. Expression was induced with 0.1 mM isopropyl-ß-D-thiogalactopyranoside at 37 °C for 22 h. Cells were harvested at 5000 × g for 15 min at 4 °C and stored at −80 °C until use. Cell pellets were thawed and resuspended in 20 mM Tris-Base, 150 mM NaCl, pH 7.4. […]
For uptake experiments, the desired intraliposomal amino acid concentration was added to the PL suspension, which was then subjected to three freeze/thaw cycles. […] Filters were then washed twice with 2 ml of stop buffer and dried, and the trapped radioactivity was counted. Transport measured in PLs containing no amino acid was subtracted from each data point to calculate the net exchange. […] BasC protein in PLs was determined by Coomassie blue staining in SDS-PAGE gels compared with known amounts of BasC in DDM micelles, determined by BCA assay (Pierce, Rockford, IL) and loaded in the same gel.

BasC K154A mutant = assay: Thermostability-based L-alanine binding assay, K154A; design: species or system Carnobacterium sp AT7; conditions: for Kd K154A binding curve, normalized signal: n=1-3
Protocol: GFP-fused BasC proteins purified in DM were incubated for 10 min at 4–60 °C (Y236F and K154A mutants) or 4–70 °C (wild-type). In total, 200 µl of 2 mg ml^−1 protein was used for each temperature point. Protein was then centrifuged at 186,000 × g for 30 min. […] Fractions (200 µl) were collected and measured for GFP fluorescence. The peak heights were normalized to those of samples incubated at 4 °C and were fit to the Hill equation using the GraphPad Prism 4 program (GraphPad Software Inc., San Diego, CA). Melting temperatures (Tm) were determined by fitting the curves to a sigmoidal dose-response equation, as previously described.
BasC-GFP proteins were then incubated at the calculated Tm for 10 min and centrifuged at 186,000 × g for 30 min. […] Binding affinities were determined by fitting the curves to a sigmoidal dose-response equation.

C[C@H](N)C(=O)O [L-alanine]
10 µM [3H]L-alanine/4 mM L-alanine exchange normalized to wild-type (BasC Y236F mutant; BasC Y236F in PLs, WT = 100, n=1-3 and mean): 116.03 and 123.34 and 111.98 and 142.02
Vmax (BasC Y236F mutant; Y236F): 4.58 ± 0.17 pmols L-alanine µg protein^−1 s^−1
increase of cytoplasmic apparent affinity vs. wild-type BasC (BasC Y236F mutant; Y236F): ~ 4 fold
saturation of the transporter at 4 mM intraliposomal L-alanine (BasC Y236F mutant; Y236F mutant): fully saturated
increase in function (BasC Y236F mutant; Y236F vs wild-type, extracellular 10 μM [3H]L-alanine against 4 mM intraliposomal L-alanine): about 20%
Km (BasC Y236F mutant; extracellular side, Y236F, read-out: Km (o)): 50.2 ± 3.44 µM
Km (BasC Y236F mutant; intracellular side, Y236F, read-out: Km (i)): 560 ± 110 µM
10 µM [3H]L-alanine/4 mM L-alanine exchange normalized to wild-type (BasC S282A mutant): 124.06 and 127.02 and 133.54
10 µM [3H]L-alanine/4 mM L-alanine exchange normalized to wild-type (BasC S282A mutant; mean): 128.21
Kd (BasC K154A mutant; K154A, incubated at Tm, L-alanine 0–200 mM, read-out: KD (apparent, thermostability-based)): 61.4 ± 7.3 mM
Kd K154A binding curve, normalized signal (BasC K154A mutant; [L-Alanine] 6.25 mM): 14.092 and 14.380 and 15.376
Kd K154A binding curve, normalized signal (BasC K154A mutant; [L-Alanine] 12.50 mM): 15.845 and 21.520 and 16.121
Kd K154A binding curve, normalized signal (BasC K154A mutant; [L-Alanine] 25 mM): 35.951 and 29.574 and 35.797
Kd K154A binding curve, normalized signal (BasC K154A mutant; [L-Alanine] 50 mM): 50.837 and 57.901 and 51.971
Kd K154A binding curve, normalized signal (BasC K154A mutant; [L-Alanine] 100 mM): 91.898 and 90.173 and 89.225
Kd K154A binding curve, normalized signal (BasC K154A mutant; [L-Alanine] 150 mM): 95.225 and 92.554 and 88.658
Kd K154A binding curve, normalized signal (BasC K154A mutant; [L-Alanine] 200 mM): 100.000
Kd (BasC K154A mutant; individual experiments n=1, n=2, n=3, read-out: Apparent Kd K154A): 55.6 mM and 58.9 mM and 69.7 mM
Kd (BasC K154A mutant; mean of n=3, read-out: Apparent Kd K154A, mean): 61.4 mM
